The source of these data is patent publication US7741337B2, “Azonafide derivatives, methods for their production and pharmaceutical compositions therefrom” (Unibioscreen S.A., priority 2005, dated 2010).

In general, IC50 refers to the concentration needed to halve the response being measured. A high value points to weaker potency.

Where a name gives a salt, the structure may show the parent alone. Read-outs that look alike come from different tables or passages of the source. Bounds are passed on as bounds.

In assay [1] the test system is U-373 MG, PC-3 and/or A549 cancer cells. Kind of assay: Effect on cell migration, summary of table 3. In kind it is cell-based, human. The conditions noted are these: for migration level of cancer cells: U-373 MG, PC-3 and/or A549 cancer cells at the non-cytotoxic concentrations of this study; for cell migration activity compared with the closest compounds known in the art: comparison drawn from table 3. The method, then:
(§1) Cells of different cancer lines, i.e. U-373 MG (Glioma cancer), PC3 (prostate cancer and A549 (Lung cancer) were seeded on culture flask 48 hours before the migration experiment. On the test day, cells were treated with or without the azonafide derivatives mentioned in table 3 in closed Falcon dishes containing a buffered medium at a controlled temperature (37.0±0.1° C.) for 12 or 22 hours, as noted in the right column of table 3. The azonafide derivatives were used at three non-cytotoxic concentrations (10^−6 M, 10^−7, 10^−8 M). Migration of the cells was observed by means of a CCD-camera mounted on a phase-contrast microscope. Statistical analysis of the migration, with the non-parametric Mann-Whitney test, was established for 25% and 50% of the most motile cells and for the entire cell population.

In assay [2] the test system is PC3 (prostate cancer) cells. Kind of assay: Effect on cell migration, PC3. Format: cell-based. Conditions: Homo sapiens, 22 hours on the 25% of most motile cells, p value in same cell, read-out: Maximum effects (cell migration); for Emax at 1 µM: at 10^−6 M. The method, then:
as §1

In assay [3] the test system is human cancer cell lines Hs683, U-373MG, HCT-15, LoVo, A549 and MCF-7. Kind of assay: MTT test, effect on overall cell growth (mean of six cell lines, examples 3 to 26). In kind it is cell-based. Conditions: mean of six cell lines Hs683, U-373MG, A549, MCF-7, 72 hours incubation, range of molar concentrations resulting in 50% inhibition of overall tumor cells growth. How it is done: (§2) MTT tests were performed in order to rapidly, i.e. within 5 days, measure the effect of azonafide derivatives of this invention on the overall cell growth. The test measures the number of metabolically active living cells that are able to transform the yellow product 3-(4,5-dimethylthiazol-2-yl)-2,5-diphenyl tetrazolium bromide (herein referred as MTT) into the blue product formazan dye by mitochondrial reduction. The amount of formazan obtained at the end of the experiment, measured by means of a spectrophotometer, is directly proportional to the number of living cells. Optical density determination thus enables a quantitative measurement of the effect of the investigated compounds as compared to the control condition (untreated cells) and/or to other reference compounds.
(§3) Height human cancer cell lines described in table 1 were used in the following MTT tests. These cell lines cover six histological cancer types, being prostate, glioma, pancreas, colon, lung and breast cancers. Cells were allowed to grow in 96-well micro-wells with a flat bottom with an amount of 100 μl of cell suspension per well with 1,000 to 4,000 cells/well depending on the cell type used. Each cell line was seeded in a well known MEM 5% serum culture medium.
(§4) The detailed experimental procedure was as following: after a 24-hour period of incubation at 37° C., the culture medium was replaced by 100 μl of fresh medium in which the compound to be tested was dissolved at the following molar concentrations: 10^−9 M, 5.10^−9 M, 10^−8 M, 5.10^−8 M, 10^−7 M, 5.10^−7 M, 10^−6 M, 5.10^−6 M and 10^−5 M. Each experiment was repeated 6 times.
(§5) After 72 hours of incubation at 37° C. with (experimental conditions) or without (control condition) the compound to be tested, the medium was replaced by 100 μl MTT dissolved in RPMI at a concentration of 1 mg/ml. The micro-wells were subsequently incubated during 3 hours at 37° C. and centrifuged at 400 g during 10 minutes. MTT was removed and formazan crystals formed were dissolved in 100 μl DMSO. The micro-wells were shaken for 5 minutes and read on a spectrophotometer at wavelengths of 570 nm (maximum formazan absorbance) and 630 nm (back-ground noise).
(§6) For each experimental condition, the mean optical density was calculated, as well as the percentage of remaining living cells in comparison with the control.
(§7) IC50 values for compounds of examples 3 to 26 were obtained on cell lines Hs683, U-373MG, HCT-15, LoVo, A549 and MCF-7 described in Table 1. IC50 values for compounds from examples 27 to 45 were obtained on cell lines PC3, U-373MG, BxPC3, LoVo, A549 and MCF-7 described in Table 1.
(In general: Tetrazolium dyes change colour on reduction, which living cells bring about.)

Assay [4] deals with U-373 MG (Glioma cancer) cells. The experiment in a line: Effect on cell migration, U-373MG. In kind it is cell-based. The conditions noted are these: Homo sapiens, U373 MG, p value in same cell, read-out: Maximum effects (cell migration); for Emax at 1 µM: at 10^−6 M; for Emax at 0.1 µM: at 10^−7 M. The method, then:
as §1

The subject of assay [5] is A549 (Lung cancer) cells. The experiment in a line: Effect on cell migration, A549. In kind it is cell-based. The conditions noted are these: Homo sapiens, p value in same cell, read-out: Maximum effects (cell migration); for Emax at 1 µM: at 10^−6 M; for Emax at 0.1 µM: at 10^−7 M. The method, then:
as §1

Assay [6] relates to human cancer cell lines PC3, U-373MG, BxPC3, LoVo, A549 and MCF-7. The experiment in a line: MTT test, effect on overall cell growth (mean of six cell lines, examples 27 to 45). Format: cell-based. Conditions: mean of six cell lines PC3, U-373MG, A549, MCF-7, 72 hours incubation, range of molar concentrations resulting in 50% inhibition of overall tumor cells growth. The method, then:
as §2, §3, §4, §5, §6, §7

Where [7] appears, read: 22 hours on the 25% of most motile cells.

Consider `CN(C)CCN1C(=O)c2cccc3cc4cccc(NC(=O)Cc5ccc(Cl)cc5)c4c(c23)C1=O` [Example 11, 2-(4-chlorophenyl)-N-{2-[2-(dimethylamino)ethyl]-1,3-dioxo-2,3-dihydro-1H-dibenzo[de,h]isoquinolin-11-yl}acetamide], for which the “migration level of cancer cells” value in assay [1] is recorded as “induced a decrease in the migration level”. Also, the “cell migration activity compared with the closest compounds known in the art” value in assay [1] is reported as “significantly greater cell migration activity than the closest compounds known in the art, or similar cell migration activity at significantly lower concentrations”. Also, the values for the Emax at 1 µM in assay [2] and in assay [4] (setting [7]) were -37% and -18%, respectively. Also, the Emax at 0.1 µM in assay [2] (at 10^−7 M) is -27%. Moreover, the IC50 in assay [3] was more than 10 µM.
As to `CN(C)CCN1C(=O)c2cccc3cc4cccc(NC(=O)CCCCl)c4c(c23)C1=O` [Example 10, 4-chloro-N-{2-[2-(dimethylamino)ethyl]-1,3-dioxo-2,3-dihydro-1H-dibenzo[de,h]isoquinolin-11-yl}butanamide], in assay [5] (setting [7]), the Emax at 1 µM was -24%. In addition, in assay [1], the “migration level of cancer cells” value is “induced a decrease in the migration level”. Further, the IC50 in assay [3] lay in the range of 1 to 5 µM.
`CC(C)COC(=O)Nc1cccc2cc3cccc4c3c(c12)C(=O)N(CCN(C)C)C4=O` [Example 27, isobutyl {2-[2-(dimethylamino)ethyl]-1,3-dioxo-2,3-dihydro-1H-dibenzo[de,h]isoquinolin-11-yl}carbamate]: the Emax at 1 µM in assay [5] (setting [7]) is -28%. In addition, the “migration level of cancer cells” value in assay [1] is “induced a decrease in the migration level”. In assay [6], the IC50 is more than 10 µM.
On to `COC(=O)Nc1cccc2cc3cccc4c3c(c12)C(=O)N(CCN(C)C)C4=O` [Example 9, methyl {2-[2-(dimethylamino)ethyl]-1,3-dioxo-2,3-dihydro-1H-dibenzo[de,h]isoquinolin-11-yl}carbamate], for which the Emax at 1 µM in assay [5] (12 hours on the 25% of most motile cells) is -40%. The Emax at 1 µM in assay [5] (setting [7]) is -28%. For the same molecule, in assay [1], the “migration level of cancer cells” value is “induced a decrease in the migration level” and the “cell migration activity compared with the closest compounds known in the art” value is reported as “significantly greater cell migration activity than the closest compounds known in the art, or similar cell migration activity at significantly lower concentrations”. This molecule returned an IC50 in assay [3] of 5 to 10 µM. Moreover, the Emax at 0.1 µM in assay [4] (12 and 22 hours on the 25% of most motile cells) is -31%.
As to `CN(C)CCN1C(=O)c2cccc3cc4c(NC(=O)Nc5ccc6c(c5)OCO6)cccc4c(c23)C1=O` [Example 14, 1-(1,3-benzodioxol-5-yl)-3-{2-[2-(dimethylamino)ethyl]-1,3-dioxo-2,3-dihydro-1H-dibenzo[de,h]isoquinolin-8-yl}urea], the Emax at 1 µM in assay [5] (setting [7]) was -24%. Besides, the “migration level of cancer cells” value in assay [1] was “induced a decrease in the migration level”. For the same molecule, the IC50 in assay [3] was more than 10 µM.
For `CCCCCCCCOC(=O)Nc1cccc2cc3cccc4c3c(c12)C(=O)N(CCN(C)C)C4=O` [Example 25, octyl {2-[2-(dimethylamino)ethyl]-1,3-dioxo-2,3-dihydro-1H-dibenzo[de,h]isoquinolin-11-yl}carbamate], in assay [5] (setting [7]), the Emax at 0.1 µM is -28%. Further, the “migration level of cancer cells” value in assay [1] is “induced a decrease in the migration level”. Further, the Emax at 0.01 µM in assay [2] (at 10^−8 M) was -21%. Further, in assay [3], the IC50 was in the range of 5 to 10 µM.
With `CN(C)CCN1C(=O)c2cccc3cc4cccc(NC(=O)Oc5ccc(F)cc5)c4c(c23)C1=O` [Example 24, 4-fluorophenyl {2-[2-(dimethylamino)ethyl]-1,3-dioxo-2,3-dihydro-1H-dibenzo[de,h]isoquinolin-11-yl}carbamate], the Emax at 0.01 µM in assay [5] (22 hours on the 25% of most motile cells, at 10^−8 M) was -31%. In assay [1], the “migration level of cancer cells” value is given as “induced a decrease in the migration level” and the “cell migration activity compared with the closest compounds known in the art” value was “significantly greater cell migration activity than the closest compounds known in the art, or similar cell migration activity at significantly lower concentrations”. The IC50 in assay [3] was more than 10 µM.
As to `CN(C)CCN1C(=O)c2cccc3cc4cccc(NC(=O)Nc5ccc6c(c5)OCO6)c4c(c23)C1=O` [Example 12, 1-(1,3-benzodioxol-5-yl)-3-{2-[2-(dimethylamino)ethyl]-1,3-dioxo-2,3-dihydro-1H-dibenzo[de,h]isoquinolin-11-yl}urea], the “migration level of cancer cells” value in assay [1] is “induced a decrease in the migration level”. In assay [3], this molecule yielded an IC50 of 5 to 10 µM. Also, the Emax at 0.1 µM in assay [4] (setting [7]) was -20%.
Take `CN(C)CCN1C(=O)c2cccc3cc4c(NC(=O)Nc5ccc6c(c5)OCO6)cccc4c(c23)C1=O` [Example 15, 1-(1,3-benzodioxol-5-yl)-3-{2-[2-(dimethylamino)ethyl]-1,3-dioxo-2,3-dihydro-1H-dibenzo[de,h]isoquinolin-8-yl}urea hydrochloride]: in assay [1], the “cell migration activity compared with the closest compounds known in the art” value is “significantly greater cell migration activity than the closest compounds known in the art, or similar cell migration activity at significantly lower concentrations”. Further, the Emax at 1 µM in assay [4] (setting [7]) was -51%.
Regarding `CCOC(=O)Nc1cccc2cc3cccc4c3c(c12)C(=O)N(CCN(C)C)C4=O` [Example 17, ethyl {2-[2-(dimethylamino)ethyl]-1,3-dioxo-2,3-dihydro-1H-dibenzo[de,h]isoquinolin-11-yl}carbamate], the Emax at 0.1 µM in assay [5] (setting [7]) is -44%. In assay [1], the “migration level of cancer cells” value is given as “induced a decrease in the migration level” and the “cell migration activity compared with the closest compounds known in the art” value was “significantly greater cell migration activity than the closest compounds known in the art, or similar cell migration activity at significantly lower concentrations”. Besides, in assay [3], the IC50 was more than 10 µM. Besides, in assay [4] (setting [7]), the Emax at 0.1 µM was -42%.
The molecule `CN(C)CCN1C(=O)c2cccc3cc4cccc(N)c4c(c23)C1=O` [Example 3, 11-amino-2-[2-(dimethylamino)ethyl]-1H-dibenzo[de,h]isoquinoline-1,3(2H)-dione, reference compound] came in with an IC50 in assay [3] of 5 to 10 µM. In addition, the Emax at 1 µM in assay [4] (setting [7]) is -31%.
As for `CCCCOC(=O)Nc1cccc2cc3cccc4c3c(c12)C(=O)N(CCN(C)C)C4=O` [Example 29, n-butyl {2-[2-(dimethylamino)ethyl]-1,3-dioxo-2,3-dihydro-1H-dibenzo[de,h]isoquinolin-11-yl}carbamate], the Emax at 0.1 µM in assay [5] (setting [7]) is -33%. Further, in assay [1], the “migration level of cancer cells” value is on record as “induced a decrease in the migration level” and the “cell migration activity compared with the closest compounds known in the art” value is listed as “significantly greater cell migration activity than the closest compounds known in the art, or similar cell migration activity at significantly lower concentrations”. The Emax at 1 µM in assay [2] was -22%. The molecule also displayed an IC50 in assay [6] of more than 10 µM.
